ChEMBL document CHEMBL1201862, “PubChem BioAssay data set” (2004)
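96-well plates; 48 h exposure; 5 concentrations. Endpoints by linear interpolation between flanking doses. Not reached: highest tested concentration assigned. The concentration for 50% growth inhibition is given as GI50.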 Calls of active or inactive are those of the source. Rule as the data show it: active = GI50 up to about 1.1 µM and inactive = higher.

Legend:
Assay in all cases: inhibition of tumour cell growth, NCI panel, 48 h
[1] = tested on: OVCAR-5
[2] = tested on: NCI-H23
[3] = tested on: UO-31
[4] = tested on: OVCAR-8
[5] = tested on: SK-MEL-5
[6] = tested on: SK-MEL-2
[7] = tested on: ACHN
[8] = tested on: MOLT-4
[9] = tested on: A549
[10] = tested on: NCI-H460
[11] = tested on: SNB-75
[12] = tested on: SK-OV-3
[13] = tested on: SF-295
[14] = tested on: UACC-62
[15] = tested on: UACC-257
[16] = tested on: SN12C
[17] = tested on: OVCAR-4
[18] = tested on: PC-3
[19] = tested on: NCI-H226

| SMILES | GI50 [1] | GI50 [2] | GI50 [3] | GI50 [4] | GI50 [5] | GI50 [6] | GI50 [7] | GI50 [8] | GI50 [9] | GI50 [10] | GI50 [11] | GI50 [12] | GI50 [13] | GI50 [14] | GI50 [15] | GI50 [16] | GI50 [17] | GI50 [18] | GI50 [19] |
| --- | --- | --- | --- | --- | --- | --- | --- | --- | --- | --- | --- | --- | --- | --- | --- | --- | --- | --- | --- |
| COC1=CC(=O)c2c(O)c3c(c(O)c2C1=O)OC1(Oc2c(cc4cc(C)oc(=O)c4c2O)CC1O)C3O (stereo not drawn) | 32.7 µM (inactive) | 35.6 µM (inactive) | 55.7 µM (inactive) | 40.4 µM (inactive) | 26.6 µM (inactive) | 39.7 µM (inactive) | 41.3 µM (inactive) | 23.3 µM (inactive) | 45.2 µM (inactive) | 27.4 µM (inactive) | 60.4 µM (inactive) | 77.1 µM (inactive) | 41.6 µM (inactive) | 32.7 µM (inactive) | 40.6 µM (inactive) | 23.5 µM (inactive) | 27.8 µM (inactive) | 38.4 µM (inactive) |  |
| COC(=O)[C@@H]1Cc2c([nH]c3ccccc23)[C@H](c2ccccc2)N1 | > 100 µM (inactive) | 54.1 µM (inactive) | 29.6 µM (inactive) | 41.3 µM (inactive) | 14.7 µM (inactive) | 32.4 µM (inactive) | 38.3 µM (inactive) | 41.4 µM (inactive) | 38.6 µM (inactive) | 34.5 µM (inactive) | 19.5 µM (inactive) | 34.4 µM (inactive) | 26.2 µM (inactive) | 50.2 µM (inactive) | 41.8 µM (inactive) | 28.2 µM (inactive) | 43.6 µM (inactive) |  | 71.8 µM (inactive) |
| CCC(C(=O)c1ccccc1)C(CCCC(=O)Nc1c(C)cccc1C)N=O (stereo not drawn) | > 100 µM (inactive) | > 100 µM (inactive) | > 100 µM (inactive) | > 100 µM (inactive) | > 100 µM (inactive) | > 100 µM (inactive) | > 100 µM (inactive) | > 100 µM (inactive) | > 100 µM (inactive) | > 100 µM (inactive) | > 100 µM (inactive) | > 100 µM (inactive) | > 100 µM (inactive) | > 100 µM (inactive) | > 100 µM (inactive) | > 100 µM (inactive) | > 100 µM (inactive) |  | > 100 µM (inactive) |
| CCOC(=O)/C(=C/c1ccc(C#N)cc1)N(CC)CC | > 100 µM (inactive) | > 100 µM (inactive) | > 100 µM (inactive) | > 100 µM (inactive) | > 100 µM (inactive) | > 100 µM (inactive) | > 100 µM (inactive) | > 100 µM (inactive) | > 100 µM (inactive) | > 100 µM (inactive) | > 100 µM (inactive) | > 100 µM (inactive) | 1.88 µM (inactive) | > 100 µM (inactive) | > 100 µM (inactive) | > 100 µM (inactive) | > 100 µM (inactive) |  | > 100 µM (inactive) |
| Cc1nn(CNc2ccc(F)c(Cl)c2)c(=S)n1/N=C/c1ccc(-c2ccc(Cl)cc2Cl)o1 | 19.1 µM (inactive) | 20.1 µM (inactive) | 16.7 µM (inactive) | 20.8 µM (inactive) | 16.7 µM (inactive) | 22.6 µM (inactive) | 16.6 µM (inactive) | 0.493 µM (active) |  | 17.1 µM (inactive) |  | 16.9 µM (inactive) | 15.7 µM (inactive) |  | 22.3 µM (inactive) |  | 20.1 µM (inactive) | 16.4 µM (inactive) | 17.2 µM (inactive) |
| Nc1c([N+](=O)[O-])nc(Cl)c2nncn12 | > 100 µM (inactive) | > 100 µM (inactive) | > 100 µM (inactive) | > 100 µM (inactive) | > 100 µM (inactive) | > 100 µM (inactive) | > 100 µM (inactive) | > 100 µM (inactive) | > 100 µM (inactive) | > 56.6 µM (inactive) | > 23.7 µM (inactive) | > 100 µM (inactive) | > 100 µM (inactive) | > 100 µM (inactive) | > 100 µM (inactive) | > 100 µM (inactive) | > 100 µM (inactive) |  | > 100 µM (inactive) |
| COc1cc(/C=C2\CCC(C)c3c2nc(N)c(C#N)c3-c2cc(OC)c(OC)c(OC)c2)cc(OC)c1OC (stereo not drawn) | > 100 µM (inactive) |  |  | 13.2 µM (inactive) | 71.9 µM (inactive) | > 100 µM (inactive) | > 100 µM (inactive) | 25.2 µM (inactive) | > 100 µM (inactive) |  | 0.165 µM (active) | > 100 µM (inactive) |  | > 100 µM (inactive) | > 100 µM (inactive) | 44.4 µM (inactive) | 31.5 µM (inactive) | 55.1 µM (inactive) |  |
| CC(C)=CCC/C(C)=C/CC/C(C)=C/C1CCC(=O)C1(C)C (stereo not drawn) | 19.1 µM (inactive) | 20.3 µM (inactive) | 17 µM (inactive) | 19.6 µM (inactive) | 15.1 µM (inactive) | 17.4 µM (inactive) | 16.6 µM (inactive) | 22.8 µM (inactive) | 27 µM (inactive) | 17.5 µM (inactive) | 28.5 µM (inactive) | 30.3 µM (inactive) | 18.3 µM (inactive) | 19.1 µM (inactive) | 21.3 µM (inactive) | 16.2 µM (inactive) | 24.9 µM (inactive) |  | 14.7 µM (inactive) |
| C[C@]12C(=O)C=CCC1=CC[C@@H]1[C@@H]2[C@H]2CC3(O)C(=O)O[C@@]4(C)[C@H]5C[C@@]6(C)[C@@H]7[C@@]2(O)[C@]1(OC[C@H]6C(=O)O5)O[C@]734 (stereo partly drawn) | 29 µM (inactive) | 24.2 µM (inactive) | > 100 µM (inactive) | 28.4 µM (inactive) | 50 µM (inactive) | 23 µM (inactive) | 61.9 µM (inactive) | 23.2 µM (inactive) | > 100 µM (inactive) | 35.8 µM (inactive) | 54.7 µM (inactive) |  | 57.4 µM (inactive) | 26.4 µM (inactive) | 59.4 µM (inactive) | 30.1 µM (inactive) | 54.3 µM (inactive) | 41.9 µM (inactive) |  |
| CC1(C)CC[C@]2(C)CC=C3[C@]4(C)CC[C@H]5C(C)(C)C(=O)CC[C@]5(C)[C@H]4CC[C@@]3(C)[C@H]2C1 | > 100 µM (inactive) | > 100 µM (inactive) | > 100 µM (inactive) | > 100 µM (inactive) | > 100 µM (inactive) | > 100 µM (inactive) | > 100 µM (inactive) | > 100 µM (inactive) | > 100 µM (inactive) |  |  | > 100 µM (inactive) | > 100 µM (inactive) | > 100 µM (inactive) | > 100 µM (inactive) | > 100 µM (inactive) | > 100 µM (inactive) | > 100 µM (inactive) | > 100 µM (inactive) |
| CCO/C=N\C1=C(C#N)SC2=N/C(=C\c3ccco3)C(=O)N21 | > 100 µM (inactive) | > 100 µM (inactive) | > 100 µM (inactive) | > 100 µM (inactive) | > 100 µM (inactive) | > 100 µM (inactive) | > 100 µM (inactive) | > 100 µM (inactive) | > 100 µM (inactive) |  | > 100 µM (inactive) | > 100 µM (inactive) | > 100 µM (inactive) |  | > 100 µM (inactive) | > 100 µM (inactive) | > 100 µM (inactive) | > 100 µM (inactive) | > 100 µM (inactive) |
| O=C(CC(C(=O)c1ccsc1)c1ccsc1)c1ccsc1 (stereo not drawn) |  | 46.1 µM (inactive) | 39.4 µM (inactive) | > 100 µM (inactive) | 43.5 µM (inactive) | > 100 µM (inactive) | > 100 µM (inactive) | 35.6 µM (inactive) | 68.5 µM (inactive) | 60 µM (inactive) | 56.5 µM (inactive) | 59.4 µM (inactive) | 73.6 µM (inactive) | 74.8 µM (inactive) | 58.2 µM (inactive) | > 100 µM (inactive) | 62.1 µM (inactive) | 44 µM (inactive) | > 100 µM (inactive) |
| CCOC(=O)C(=CNc1ccc(S(N)(=O)=O)cc1)C(=O)OCC | > 100 µM (inactive) | > 100 µM (inactive) | > 100 µM (inactive) | > 100 µM (inactive) | > 100 µM (inactive) | > 100 µM (inactive) | > 100 µM (inactive) | > 100 µM (inactive) | > 100 µM (inactive) | > 100 µM (inactive) | > 100 µM (inactive) | > 100 µM (inactive) | > 100 µM (inactive) |  | > 100 µM (inactive) | > 100 µM (inactive) | > 100 µM (inactive) | > 100 µM (inactive) | > 100 µM (inactive) |
| CC1CN=C(N(C(=O)Nc2ccccc2)c2ccc(Cl)c(Cl)c2)S1 (stereo not drawn) | 34.1 µM (inactive) | 32.8 µM (inactive) | 24.8 µM (inactive) | 35.6 µM (inactive) | 18.5 µM (inactive) | 18.9 µM (inactive) | 31.6 µM (inactive) | > 10 µM (inactive) | 25.9 µM (inactive) | 19.3 µM (inactive) | > 100 µM (inactive) | 52.7 µM (inactive) | 45.5 µM (inactive) |  | 32.2 µM (inactive) | 16.6 µM (inactive) | 75.3 µM (inactive) | 26.8 µM (inactive) |  |
| CC[S+]([O-])C(=O)N(O)c1ccc(Cl)cc1 (stereo not drawn) | 17.7 µM (inactive) |  | 14.5 µM (inactive) |  | 26.4 µM (inactive) | 15.3 µM (inactive) | 11.1 µM (inactive) | 9.64 µM (inactive) | 67.3 µM (inactive) |  | 32.1 µM (inactive) | > 100 µM (inactive) | 85.7 µM (inactive) | 8.55 µM (inactive) | 23.2 µM (inactive) | 22.3 µM (inactive) | 38.3 µM (inactive) | 37.4 µM (inactive) | 84.1 µM (inactive) |
| COc1ccc(/N=C2\C(=O)Nc3ccc(Br)cc32)cc1 | 23.2 µM (inactive) | 18.2 µM (inactive) | 9.82 µM (inactive) | 14.9 µM (inactive) | 11.2 µM (inactive) |  | 15.4 µM (inactive) | 16.6 µM (inactive) | 24.2 µM (inactive) | 21.8 µM (inactive) |  | 24.3 µM (inactive) | 22.8 µM (inactive) | 4.89 µM (inactive) | 20.7 µM (inactive) | 17.2 µM (inactive) |  | 25.3 µM (inactive) | 16.2 µM (inactive) |
